Assay results taken from patent US5968526A, “T cell epitopes of the major allergens from Dermatophagoides (house dust mite)” (Immulogic Pharamaceutical Corporation, priority 1995, dated 1999).

Tests used:
Type in all cases: cell-based, human
[1] = test system: T cell lines primed in vitro to Der f I; assay: secondary proliferation of Der f I-primed T cell lines (Examples VI, VII, XI); details: Der f I primed; 8 positive experiments; FIG. 8
Method: Experiments similar to those of Example V were performed to determine. the T cell-reactive areas of the Der f I protein. For example, PBMC from house dust mite-allergic patient 783 were isolated as described in Example V and were stimulated in vitro-- with recombinant purified Der f I at 20 μg/ml. The results of the proliferation assay with Der f I peptides using x-irradiated (3500 Rads) autologous PBMC as antigen presenting cells indicate that T cells from this patient respond to the peptides DF I-8.1, DF I-9, DF I-6, DF I-10, DF I-2.1, DF I-3, DF I-11, DF I-5, DF I-1, and DF I-17 (data not shown).
The above procedure was followed in a number of patients except in individual cases, T cell lines were primed with affinity purified Der f I at 20 μg/ml or at 10 μg/ml and x-irradiated (25,000 Rads) autologous Epstein-Barr virus transformed B cells were used as antigen presenting cells. […]
Similarly, the procedure described in Example VI was followed with T cell lines from 9 patients primed in vitro to the Der f I protein then analyzed for response to selected peptides derived from the protein. The data was analyzed as described in Example VI. […]

[2] = test system: T cell lines primed in vitro to Der p I; assay: secondary proliferation of Der p I-primed T cell lines (Examples V, VII, XI); details: overlapping Der p I peptides; 33 positive experiments
Method: 10^7 PBMC from individual 543 were cultured in 10 ml RPMI-1640 containing 5% pooled human AB serum and supplemented with glutamine, penicillin, streptomycin and HEPES buffer in the presence of 20 μg/ml purified native Der p I/ml at 37° C. for 7 days. Viable cells were then purified by Ficoll-Hypaque centrifugation and cultured for 2 additional weeks in RPMI-1640/5% AB serum containing 5 units recombinant human IL-2/ml and 5 units recombinant human IL-4/ml. The resting T cells were then tested in a secondary proliferation assay to assess T cell responses to various house dust mite proteins and peptides. For assay, 2×10^4 resting T cells were cultured in 200 μl of RPMI-1640/5% AB serum for 3 days at 37° C. in the presence of 2×10^4 autologous Epstein-Barr virus transformed B cells (20,000 Rads) as antigen presenting cells with various concentrations of purified native Der p I or synthetic Der p I peptides. Each well then received 1 μCi tritiated thymidine for 16 hours. The counts incorporated were collected onto glass fiber filters and processed for liquid scintillation counting. Medium alone, acting as negative control, contained no allergen or peptide. The results of this experiment indicate that this particular patient responds with an S.I. of at least 2.0 to several peptides derived from the Der p I protein, including DP I-1, DP I-2, DP I-4, DP I-11, DP I-5, DP I-13, DP I-15, DP I-6.1, DP I-8, DP I-9, DP I-16, DP I-10 and DP I-17 (data not shown).
The above procedure was followed with a number of other house dust mite allergic individuals except a) in individual cases, the length of time of cultivation with IL-2 and IL-4 varied; b) in individual cases, the T cells were primed with either purified native (N) or recombinant (R) Der p I protein at either 20 μg/ml or 10 μg/ml; and c) in individual cases, x-irradiated (3500 Rads) autologous PBMC were used as antigen presenting cells in the secondary proliferation assay.
Individual results were considered positive and used if the individual responded to the Der p I protein and at least one peptide derived from Der p I at an S.I. of 2.0 or greater. The resting T cell lines primed with recombinant or native Der p I-stimulated PBMC were tested for reactivity to synthetic Der p I peptides. The maximum response for each peptide in a titration of the antigen is expressed as the T cell stimulation index (S.I.). The S.I. is the counts-per-minute (CPM) incorporated by cells in response to the peptide divided by the CPM incorporated by cells in medium only. […] However, only individual S.I. values greater than or equal to 2.0 (a response two-fold or greater over background), referred to herein as "positive" results, were used in calculating mean T cell stimulation indices for each peptide for the patient or group of patients tested. […] The T cell stimulation index is calculated by: [formula]
The bar represents the cumulative rank of the peptide response in the group of patients. To determine the cumulative rank, the 5 peptides with the highest S.I. in each individual were determined and assigned a numerical rank in descending order, with 5 representing the strongest response. The ranks for each peptide were then summed in the group of patients to determine the cumulative rank for the peptide. […] Given the percent positive and the mean T cell stimulation index, the positivity index (P.I.) for each peptide can be calculated.
The Der p I and Der f I proteins are very homologous (81% identity). Thus, experiments, similar to those of Example V, were carried out to determine the T cell responses of Der p I primed T cell lines when challenged with various Der p I peptides and substantially matching […].
The results of T cell studies using selected peptides derived from the Der p I, the Der f I, the Der p II and the Der f II proteins are shown in FIGS. 13-18a-d. […]

[3] = test system: PBMC from mite-allergic patient; assay: primary T cell (PBMC) proliferation, mite-allergic patient, tritiated thymidine; details: medium 1071 ± 30
Method: Peripheral blood mononuclear cells (PBMC) were purified by Ficoll-Hypaque centrifugation of a peripheral blood specimen from mite-allergic patient and were assayed for proliferation in response to various antigens, i.e., affinity-purified Der p I, affinity purified Der p II, various Der p I and Der p II peptides. For assay, 5×10^4 PBMC were cultured in triplicate microwells for 7 days at 37° C. in the presence of various concentrations of antigen in 200 μl RPMI-1640 containing 5% human AB serum. Each well then received 1 μCi tritiated thymidine for 16 hours. The counts incorporated were collected onto glass fiber filters and processed for liquid scintillation counting. […] The CPM +/- standard deviation are shown. The stimulation index of each response (S.I.) is the ratio of the ^3 H-thymidine CPM incorporated by the cells in response to antigen divided by the ^3 H-thymidine CPM incorporated by cells in medium only. […] Thus, these peptides contain Der p I or Der p II T cell epitopes recognized by T cells from this particular allergic patient.

[4] = test system: T cell lines primed in vitro with Der p II; assay: T cell proliferation with fine map and modified Group II peptides (Example XIV); details: FIGS. 32a-b
Method: Long term T cell lines were established by stimulation of 2×10^6 PBL/ml in bulk cultures of complete medium (RPMI-1640, 2 mM L-glutamine, 100 U/ml penicillin/streptomycin, 5×10^-5 M 2-mercaptoethanol, and 10 mM HEPES supplemented with 5% heat inactivated human AB serum) with 30 μg/ml of purified native Der p I or Der p II for 5-6 days at 37° C. in a humidified 5% CO2 incubator to select for house dust mite protein allergen reactive T cells. This amount of priming antigen was determined to be optimal for the activation of T cells from house dust mite allergic patients. Viable cells were purified by LSM centrifugation and cultured in complete medium supplemented with 5 units recombinant human IL-2/ml and 5 units recombinant human IL-4/ml for up to three weeks until the cells no longer responded to lymphokines and were considered "rested". The ability of the T cells to proliferate to selected peptides, purified Der p I or Der p II, or positive (PHA) controls or negative controls (medium only) was then assessed. For assay, 2×10^4 rested cells were restimulated in the presence of 2×10^4 autologous Epstein-Barr virus (EBV)-transformed B cells (prepared as described below) (gamma-irradiated with 25,000 RADS) or with 5×10^4 autologous PBMs (gamma-irradiated with 3500 RADS), with 2-50 μg/ml of purified native Der p I or Der p II in a volume of 200 μl complete medium in duplicate or triplicate wells in 96-well round bottom plates for 3 days. Each well then received 1 μCi tritiated thymidine for 16-20 hours. The counts incorporated were collected onto glass fiber filter mats and processed for liquid scintillation counting. […] The titrations were used to optimize the dose of peptides in T cell assays.
The maximum response in a titration of each peptide is expressed as the stimulation index (S.I.). The S.I. is the counts per minute (CPM) incorporated by cells in response to peptide, divided by the CPM incorporated by cells in medium only. […] The positive results were used in calculating mean stimulation indices for each peptide for the individual patient tested.
The above procedure was followed with 18 patients in the studies using peptides derived from Der p I and Der f I (FIGS. 31a-b), and 21 patients in the studies with Der p II peptides (FIGS. 32a-b). Individual patient results were used in calculating the mean S.I. for each peptide if the patient responded to the Der p I or Der p II protein at an S.I. of 2.0 or greater and the patient responded to at least one peptide derived from a house dust mite allergen at an S.I. f 2.0 or greater. A summary of positive experiments from the patients tested is shown in FIGS. 32a and 32b and FIGS. 33a and 33b. The bars represent the positivity index. […] In parenthesis above each bar are the mean stimulation indices for each peptide or protein for the group of patients tested.
Autologous EBV-transformed cell lines were γ-irradiated with 25,000 Rad and used as antigen presenting cells in secondary proliferation assays and secondary bulk stimulations. These EBV-transformed cell lines were made by incubating 5×10^6 PBL with 1 ml of B-59/8 Marmoset cell line (ATCC CRL1612, American Type Culture Collection, Rockville, Md.) conditioned medium in the presence of 1 μg/ml phorbol 12-myristate 13-acetate (PMA) at 37° C. for 60 minutes in 12×75 mm polypropylene round-bottom Falcon snap cap tubes (Becton Dickinson Labware, Lincoln Park, N.J.). These cells were then diluted to 1.25×10^6 cells/ml in RPMI-1640 as described above except supplemented with 10% heat-inactivated fetal bovine serum and cultured in 200 μl aliquots in flat bottom culture plates until visible colonies were detected. They were then transferred to larger wells until the cell lines were established.

[5] = test system: T cell lines primed in vitro to Der p II; assay: secondary proliferation of Der p II-primed T cell lines (Examples VIII, X, XI)
Method: Experiments similar to those of Example V were performed to determine the T cell-reactive areas of the Der p II protein. For example, PBMC from house dust mite-allergic patient 348 were isolated as described in Example V and were stimulated in vitro with 20 μg/ml purified native Der p II.
The above procedure was followed with a number of patients except in individual cases, T cell lines were primed with recombinant Der p II at 20 μg/ml or at 3 μg/ml and x-irradiated (3500 Rads) autologous PBMC were used as antigen-presenting cells. The data was analyzed as described in Example V, except the ranked sum of peptide responses was analyzed assigning a value of 3, 2 or 1 to the three highest S.I. responses.
A study similar to that described in Example VII was carried out to determine the T cell cross-reactivity of the Der p II and Der f II proteins. T cells primed with the Der f II protein were challenged with various Der f II peptides and a set of substantially matching Der p II peptides.
Another experiment following the procedure described in Example VIII analyzed the response of 29 patients primed in vitro to the Der p II protein and challenged with selected peptides derived from the Der p II sequence.

Row | Substance | CPM ± S.D. ([3]; 10 μg/ml) | CPM ± S.D. ([3]; 30 μg/ml) | CPM ± S.D. ([3]; 100 μg/ml) | T cell response, Group II peptides [4] | further results
1 | DP I-8: Der p I peptide (IKDLDAFRHYDGTRIIQRDNGYQPNY) | 1439 ± 32 CPM | 1045 ± 32 CPM | 2272 ± 40 CPM | – | T cell response to Der p I peptides [1]: respond significantly; T cell reactivity [2]: significant regions of T cell reactivity
2 | DPII-8: printed among the modified forms; SEQ ID NO 171 in b126, probably DP II-20.8 (DQVDVKDCANHEIKKVLVPGCHGSEPK) | – | – | – | positive T cell studies | –
3 | DP II-20: Der p II peptide (DQVDVKDCANHEIKKVLVPGCHGSEP) | – | – | – | positive T cell studies | –
4 | DP II-9: Der p II peptide (VVTVKVMGDDGVLACAIATHAKIRD) | 3970 ± 87 CPM | 4464 ± 86 CPM | 2237 ± 53 CPM | – | T cell reactivity ([5]; overlapping Der p II peptides, 26 positive experiments, FIG. 9): significant T cell reactivity; T cell response ([5]; patient 348, native Der p II primed, data not shown): responds well
5 | DP II-20.6: Der p II peptide (DQVDVKDSANHEIKKVLVPGSHGSEP) | – | – | – | – | ranked sum of peptide responses ([5]; 30 patients, FIG. 17b): highest ranked sum
6 | DF II-18: Der f II peptide (DAKYTWNVPKIAPKSENVVVTVKLVG) | – | – | – | – | T cell response to Der f II peptides ([5]; Der p II primed, 26 positive experiments, FIG. 12): respond significantly
